Measurements taken from article PMC10740580, “Benzothiazole-Phthalimide Hybrids as Anti-Breast Cancer and Antimicrobial Agents” (Antibiotics, 2023).
In brackets after ≈: the same amount, converted by molar mass.

Legend:
[1] = test system: MDA-MB-231 cells; assay: MTT cell viability assay, MDA-MB-231; assay type: cell-based, human; conditions: mean ± SD; for IC50: Homo sapiens, MDA-MB-231, 72 h exposure
Method: The anticancer activity of the studied compounds (3a–h) was explored with regards to two human breast cancer cell lines, namely the estrogen receptor positive (ER+) MCF-7 cells and the triple negative MDA-MB-231 cells (ER-, PR-, and HER-2/Neu-). Cells were continuously exposed to the test substances for 72 h, after which their viability was assessed by means of the MTT assay. Table 2 lists the determined IC50 values for the investigated substances and the reference drug, thalidomide. […] Additionally, the same test for all the compounds has been performed on nonmalignant breast epithelial cells (MCF-10A) to ascertain their potential cytotoxicity.
The four cell lines used in this work (MCF-7, MDA-MB-231, MCF-10A, and 3T3-L1) were obtained from the American Type Culture Collection (ATCC, Manassas, VA, USA). All cell lines were maintained at 37 °C in a humidified atmosphere of 95% air and 5% CO2 and periodically screened for contamination. MCF-7, human breast cancer cells estrogen receptor (ER)-positive, and human breast cancer triple negative MDA-MB231 were grown in DMEM-F12 medium containing 2 mmol/L L-glutamine, 1 mg/mL penicillin–streptomycin, and 5% newborn calf serum (NCS) or 5% fetal bovine serum (FBS), respectively. MCF-10A human mammary epithelial cells were cultured in DMEM/F12 medium, supplemented with 5% horse serum (HS) (Eurobio, Les Ullis, Cedex, France), 100 U/mL penicillin/streptomycin, […], 20 ng/mL hEGF (human epidermal growth factor), […], and […] (Sigma-Aldrich, Milano, Italy). BALB/3T3 murine fibroblast cells were cultured in DMEM high glucose supplemented with 10% bovine calf serum (BCS), 1% L-glutamine, and 100 U/mL penicillin/streptomycin.
Cell viability was evaluated by means of the 3-(4,5-dimethylthiazol-2-y1)-2,5-diphenyltetra zolium bromide (MTT, Sigma-Aldrich, Milan, Italy) assay. On 48-well plates, cells were seeded, and they were cultured in complete medium. Before being treated, cells were starved in serum-free medium for 24 h to allow cell cycle synchronization. Subsequently, cells were exposed to increasing doses of each compound for 72 h in phenol-red-free media supplemented with 1% serum before fresh MTT was added to each well (final concentration: 0.5 mg/mL). Cells were lysed with DMSO after 2 h of incubation at 37 °C, and optical density at 570 nm was then determined with a microplate reader. Using GraphPad Prism 9 software (GraphPad Inc., San Diego, CA, USA), the mean absorbance for each sample was expressed as a percentage over the control and plotted vs. drug concentrations to establish the IC50 values. The given standard deviations (SDs) are indicative of three separate tests carried out in triplicate.

[2] = test system: Candida albicans 10231; assay: Antifungal microdilution, C. albicans ATCC 10231; assay type: cell-based; conditions: microdilution CLSI M27-A3, 48 h, 37 °C
Method: In accordance with CLSI guidelines, compounds 3a–h were tested against a variety of fungal strains (Candida albicans 10231, Candida albicans 90028, Candida glabrata 15126, and Candida parapsilosis 22019) belonging to the ATCC collection. Amphotericin B was utilized as a reference drug. A similar trend of results, or even better than that obtained against bacteria, was assessed against fungal strains. […] Also, in this case, compound 3h emerged as the best of the series, with MICs of 16 μg/mL against Candida glabrata and Candida parapsilosis strains and 32 μg/mL against Candida albicans strains.
A microdilution technique described by the Clinical and Laboratory Standards Institute (CLSI, M27-A3) was used to assess the antifungal activity. The following fungal strains, belonging to the ATCC collection and available as freeze-dried discs, were used: C. albicans ATCC 10231, C. albicans ATCC 90028, C. glabrata ATCC 15126, and C. parapsilosis ATCC 22019. Stock solutions were prepared and preserved with purity as previously described for the antibacterial studies. Each yeast strain’s pre-cultures were made in Sabouraud broth (SAB) and allowed to grow until they stopped at 37 °C. By using a spectrophotometric technique (530 nm, range 0.12–0.15), the turbidity of the yeast stock suspension was calibrated to 0.5 McFarland Standard. Next, the standardized suspension was diluted first at 1:50 with SAB and then at 1:20 in the same medium to have […]. A total of 100 µL of inoculum was seeded into each well. As a control for growth, several wells containing only inoculated broth were prepared. The plates were incubated for 48 h at 37 °C, and the MIC values were calculated as the final well with no fungal growth. […] MIC values were observed based on the absence of fungal growth in the final well. The MICs were calculated by conducting the antifungal test three times in duplicate. As a control, amphotericin B was used.

For `COc1cc2nc(N3C(=O)c4ccccc4C3=O)sc2cc1OC` [3f, 2-[5,6-Dimethoxy-1,3-benzothiazol-2-yl]-1H-isoindole-1,3(2H)-dione], the IC50 [1] was 49.6 ± 1 µM and the MIC [2] was 32 µg/mL (≈ 94 µM).
Work on `O=C1c2ccccc2C(=O)N1c1nc2ccccc2s1` [3a, 2-(1,3-benzothiazol-2-yl)-1H-isoindole-1,3(2H)-dione] yielded an IC50 [1] of 81.8 ± 0.8 µM and an MIC [2] of 64 µg/mL (≈ 228 µM).
`Cc1ccc2nc(N3C(=O)c4ccccc4C3=O)sc2c1` [3d, 2-[6-Methyl-1,3-benzothiazol-2-yl]-1H-isoindole-1,3(2H)-dione] gave an IC50 [1] of 202.6 ± 0.6 µM and an MIC [2] greater than 512 µg/mL.
`O=C1c2ccccc2C(=O)N1c1nc2ccc(F)cc2s1` [3b, 2-(6-Fluoro-1,3-benzothiazol-2-yl)-1H-isoindole-1,3(2H)-dione] gave an IC50 [1] of 71.2 ± 1 µM and an MIC [2] of 64 µg/mL (≈ 215 µM).
Molecule `O=C1c2ccccc2C(=O)N1c1nc2ccc(Oc3ccccc3)cc2s1` [3h, 2-[6-Phenoxy-1,3-benzothiazol-2-yl]-1H-isoindole-1,3(2H)-dione] has an IC50 [1] of 14 ± 0.5 µM and an MIC [2] of 32 µg/mL (≈ 85.9 µM).
With `O=C1c2ccccc2C(=O)N1c1nc2ccc(O)cc2s1` [3g, 2-[6-Hydroxy-1,3-benzothiazol-2-yl]-1H-isoindole-1,3(2H)-dione] the IC50 [1] was 63.3 ± 0.7 µM and the MIC [2] was 32 µg/mL (≈ 108 µM).
`COc1ccc2nc(N3C(=O)c4ccccc4C3=O)sc2c1` [3e, 2-[6-Methoxy-1,3-benzothiazol-2-yl]-1H-isoindole-1,3(2H)-dione] was tested, and the IC50 [1] was 102.8 ± 0.9 µM and the MIC [2] was 64 µg/mL (≈ 206 µM).
`O=C1c2ccccc2C(=O)N1c1nc2ccc(C(F)(F)F)cc2s1` [3c, 2-[6-Trifluoromethyl-1,3-benzothiazol-2-yl]-1H-isoindole-1,3(2H)-dione] was tested, and the “IC50 MDA-MB-231” value ([1]; 72 h exposure) was “did not possess any activity”, the IC50 [1] was greater than 500 µM and the MIC [2] was 64 µg/mL (≈ 184 µM).
